Experimental data: paper PMC6001238, “Iterative Chemical Engineering of Vancomycin Leads to Novel Vancomycin Analogs With a High in Vitro Therapeutic Index” (Frontiers in Microbiology, 2018)
Values after ≈ are worked out from the molar mass of the structure shown. Like-named read-outs stand apart in the source and are kept apart here.

Key:
[1] = test system: E. faecalis VSE 1; assay: MIC, broth microdilution, vancomycin-sensitive E. faecalis (VSE 1); assay type: cell-based, Enterococcus faecalis
Method in brief: (§1)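 Broth microdilution per CLSI; controls = ultrapure water, non-inoculated broth. One set: + vancomycin 10 μM final alongside test analogue/control drug.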

[2] = test system: E. faecalis VRE 6; assay: MIC, broth microdilution, vancomycin-resistant E. faecalis VRE 6 (VanA); assay type: cell-based, Enterococcus faecalis
Method in brief: as §1

[3] = test system: E. faecalis VRE 53; assay: MIC, broth microdilution, vancomycin-resistant E. faecalis VRE 53 (VanA); assay type: cell-based, Enterococcus faecalis
Method in brief: as §1

[4] = test system: E. faecalis VRE 29; assay: MIC, broth microdilution, vancomycin-resistant E. faecalis VRE 29 (VanA); assay type: cell-based, Enterococcus faecalis
Method in brief: as §1

[5] = test system: E. faecalis VRE 37; assay: MIC, broth microdilution, vancomycin-resistant E. faecalis VRE 37 (VanA); assay type: cell-based, Enterococcus faecalis
Method in brief: as §1

[6] = test system: Murine leukemia (L1210) cells; assay: Cytostatic activity, L1210 cell proliferation; assay type: cell-based; details: Mus musculus, L1210, 48 h; mean ± SD of three experiments; highest concentration tested 250 µM; 2 days; read-out: Toxicity (IC50) L1210
Method in brief: (§2)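 Suspensions (300,000–500,000 cells/mL) combined with equal volumes of diluted compound; 37°C; L1210 2 d / CEM 3 d / HeLa 4 d; counted by Coulter counter; IC50 vs untreated wells.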

[7] = test system: human T-lymphocyte (CEM) cells; assay: Cytostatic activity, CEM cell proliferation; assay type: cell-based; details: Homo sapiens, CCRF-CEM, 72 h; mean ± SD of three experiments; highest concentration tested 250 µM; 3 days; read-out: Toxicity (IC50) CEM
Method in brief: as §2

[8] = test system: human cervix carcinoma (HeLa) cells; assay: Cytostatic activity, HeLa cell proliferation; assay type: cell-based; details: Homo sapiens, HeLa, 96 h; mean ± SD of three experiments; highest concentration tested 250 µM; 4 days; read-out: Toxicity (IC50) HeLa
Method in brief: as §2

[9] = test system: L1210, CEM and HeLa cell lines; assay: Cytostatic activity, average or summary over L1210, CEM and HeLa; assay type: cell-based
Method in brief: as §2

[10] = test system: S. aureus VSSA (ATCC 6538); assay: MIC, broth microdilution, vancomycin-sensitive S. aureus (VSSA/MSSA, ATCC 6538); assay type: cell-based, Staphylococcus aureus
Method in brief: as §1

[11] = test system: S. aureus VISA/HIP5827; assay: MIC, broth microdilution, vancomycin-intermediate S. aureus VISA HIP5827; assay type: cell-based, Staphylococcus aureus
Method in brief: as §1

[12] = test system: S. aureus VRSA; assay: MIC, broth microdilution, vancomycin-resistant S. aureus (VRSA); assay type: cell-based, Staphylococcus aureus
Method in brief: as §1

[13] = test system: MRSA KS2; assay: MIC, broth microdilution, MRSA KS2; assay type: cell-based, Staphylococcus aureus
Method in brief: as §1

[14] = test system: MRSA KS6; assay: MIC, broth microdilution, MRSA KS6; assay type: cell-based, Staphylococcus aureus
Method in brief: as §1

[15] = test system: MRSA KS89; assay: MIC, broth microdilution, MRSA KS89; assay type: cell-based, Staphylococcus aureus
Method in brief: as §1

[16] = test system: MRSA KS1; assay: MIC, broth microdilution, MRSA KS1; assay type: cell-based, Staphylococcus aureus
Method in brief: as §1

[17] = test system: 33 clinical VRE isolates; assay: MIC against a set of 33 clinical VRE isolates (range, MIC50, TI); assay type: cell-based, Enterococcus faecalis
Procedure: (§3) The minimum inhibitory concentration (MIC) was determined using the broth microdilution method according to the antimicrobial susceptibility testing standards of the clinical and laboratory standards institute ([Clinical and Laboratory Standards Institute [CLSI], 2012]). Ultrapure water and non-inoculated broth were used as controls. In one case, a final concentration of 10 μM vancomycin was included with the vancomycin analog or control antibiotic.

[18] = test system: 24 clinical MRSA isolates; assay: MIC against a set of 24 clinical MRSA isolates (range, MIC50, TI); assay type: cell-based, Staphylococcus aureus
Procedure: as §3

[19] = test system: VE 148 (VanB); assay: MIC, VanB-type VRE strain VE 148; assay type: cell-based, Enterococcus; details: Enterococcus; VE 148, VanB; read-out: MIC
Procedure: as §3

[20] = test system: VE 149 (VanB); assay: MIC, VanB-type VRE strain VE 149; assay type: cell-based, Enterococcus; details: Enterococcus; VE 149, VanB; read-out: MIC
Procedure: as §3

[21] = test system: VE 150 (VanB); assay: MIC, VanB-type VRE strain VE 150; assay type: cell-based, Enterococcus; details: Enterococcus; VE 150, VanB; read-out: MIC
Procedure: as §3

[22] = test system: VE 152 (VanB); assay: MIC, VanB-type VRE strain VE 152; assay type: cell-based, Enterococcus; details: Enterococcus; VE 152, VanB; read-out: MIC
Procedure: as §3

[23] = test system: VE 157 (VanB); assay: MIC, VanB-type VRE strain VE 157; assay type: cell-based, Enterococcus; details: Enterococcus; VE 157, VanB; read-out: MIC
Procedure: as §3

[24] = test system: VE 82 (VanC1); assay: MIC, VanC1-type VRE strain VE 82; assay type: cell-based, Enterococcus gallinarum; details: Enterococcus gallinarum; VE 82, VanC1; read-out: MIC
Procedure: as §3

[25] = test system: MRSA; assay: Minimum bactericidal concentration against MRSA; assay type: cell-based, Staphylococcus aureus
Procedure: Plates were incubated overnight at 37°C and colony growth was inspected.

MIC ([1]; VSE1, Enterococcus faecalis VSE 1 (vancomycin-sensitive), read-out: MIC): 3.13 µM (≈ 1.83 µg/mL) | MIC-fold improvement vs. vancomycin ([1]; VSE 1, ratio of MIC of vancomycin and MIC of analogue): 0.5 | MIC ([2]; Enterococcus faecalis VRE 6 (vancomycin-resistant), read-out: MIC): 3.13 µM (≈ 1.83 µg/mL) | MIC-fold improvement vs. vancomycin ([2]; VRE 6, ratio of MIC of vancomycin and MIC of analogue): 64 | MIC ([3]; Enterococcus faecalis VRE 53 (vancomycin-resistant), read-out: MIC): 3.13 µM (≈ 1.83 µg/mL) | MIC-fold improvement vs. vancomycin ([3]; VRE 53, ratio of MIC of vancomycin and MIC of analogue): 128 | MIC ([4]; Enterococcus faecalis VRE 29 (vancomycin-resistant), read-out: MIC): 3.13 µM (≈ 1.83 µg/mL) | MIC-fold improvement vs. vancomycin ([4]; VRE 29, ratio of MIC of vancomycin and MIC of analogue): 128 | MIC ([5]; Enterococcus faecalis VRE 37 (vancomycin-resistant), read-out: MIC): 3.13 µM (≈ 1.83 µg/mL) | MIC-fold improvement vs. vancomycin ([5]; VRE 37, ratio of MIC of vancomycin and MIC of analogue): 128 | IC50 ([9]; average IC50 used for TI in Table S5, >250 entered as 250, read-out: IC50): 14 µM | MIC ([10]; ATCC6538, Staphylococcus aureus VSSA, read-out: MIC): 3.13 µM (≈ 1.83 µg/mL) | MIC-fold improvement vs. vancomycin ([10]; VSSA, ratio of MIC of vancomycin and MIC of analogue): 0.3 | MIC ([11]; Staphylococcus aureus VISA/HIP5827, read-out: MIC): 3.13 µM (≈ 1.83 µg/mL) | MIC-fold improvement vs. vancomycin ([11]; VISA/HIP5827, ratio of MIC of vancomycin and MIC of analogue): 2 | MIC ([12]; Staphylococcus aureus VRSA, read-out: MIC): 3.13 µM (≈ 1.83 µg/mL) | MIC-fold improvement vs. vancomycin ([12]; VRSA, ratio of MIC of vancomycin and MIC of analogue): 32 | MIC-fold improvement vs. vancomycin ([13]; MRSA KS2, ratio of MIC of vancomycin and MIC of analogue): 0.5 | MIC ([13]; Staphylococcus aureus MRSA KS2, read-out: MIC): 1.56 µM (≈ 0.914 µg/mL) | MIC-fold improvement vs. vancomycin ([14]; MRSA KS6, ratio of MIC of vancomycin and MIC of analogue): 0.5 | MIC ([14]; Staphylococcus aureus MRSA KS6, read-out: MIC): 1.56 µM (≈ 0.914 µg/mL) | MIC-fold improvement vs. vancomycin ([15]; MRSA KS8 (head; KS89 in title), ratio of MIC of vancomycin and MIC of analogue): 0.5 | MIC ([15]; Staphylococcus aureus MRSA KS8 (head; KS89 in title), read-out: MIC): 1.56 µM (≈ 0.914 µg/mL) | MIC-fold improvement vs. vancomycin ([16]; MRSA KS1, ratio of MIC of vancomycin and MIC of analogue): 0.5 | MIC ([16]; Staphylococcus aureus MRSA KS1, read-out: MIC): 1.56 µM (≈ 0.914 µg/mL) | MIC Range ([17]; 33 clinical VRE isolates): ≤0.02 to 0.78 µM | MIC50 ([17]; Enterococcus, median MIC, 33 clinical VRE isolates, read-out: MIC50): 0.2 µM (≈ 0.117 µg/mL) | MIC Range ([18]; 24 clinical MRSA isolates): 0.78 to 6.25 µM | MIC50 ([18]; Staphylococcus aureus, median MIC, 24 clinical MRSA isolates, read-out: MIC50): 1.56 µM (≈ 0.914 µg/mL) | MIC [19]: 3.13 µM (≈ 1.83 µg/mL) | MIC [20]: 1.56 µM (≈ 0.914 µg/mL) | MIC [21]: 1.56 µM (≈ 0.914 µg/mL) | MIC [22]: 1.56 µM (≈ 0.914 µg/mL) | MIC [23]: 1.56 µM (≈ 0.914 µg/mL) | MIC [24]: 0.78 µM (≈ 0.457 µg/mL)
SMILES: CN(C)c1cc(NC(=O)CNC(C)(C)C)c(O)c2c1C[C@H]1C[C@H]3[C@H](N(C)C)C(O)=C(C(N)=O)C(=O)[C@@]3(O)C(O)=C1C2=O [Tigecycline, reference compound]
IC50 [6]: 9.4 ± 3.2 µM | IC50 [7]: 7.1 ± 2.1 µM | IC50 [8]: 24 ± 17 µM | IC50 ([9]; average of L1210, CEM and HeLa, read-out: Toxicity (IC50) Average): 14 µM | TI (IC50/MIC50) ([17]; in vitro therapeutic index, VRE): 70 | TI (IC50/MIC50) ([18]; in vitro therapeutic index, MRSA): 9 | MBC relative to MIC [25]: more than four times higher than the corresponding MIC
